Reference: ChEMBL document CHEMBL1201862, “PubChem BioAssay data set” (2004)
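Growth conditions: 96-well plates. Treatment: test compound, 48 hours, 5 concentrations. Analysis: linear interpolation between bracketing concentrations; unreached endpoints set to highest concentration. GI50 marks 50% less growth.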 Activity calls are given as the source filed them. No stated cut-off is given here; in the data, active = GI50 up to about 1.1 µM and inactive = higher.

Tests used:
Assay in all cases: NCI anticancer screen, dose series, 48 h
SN12C = tested on: SN12C
OVCAR-3 = tested on: OVCAR-3
NCI-H460 = tested on: NCI-H460
DLD-1 = tested on: DLD-1
UACC-62 = tested on: UACC-62
SK-OV-3 = tested on: SK-OV-3
SNB-19 = tested on: SNB-19
U-251 = tested on: U-251
DMS-273 = tested on: DMS-273
CCRF-CEM = tested on: CCRF-CEM
HCC 2998 = tested on: HCC 2998
LXFL 529 = tested on: LXFL 529
UO-31 = tested on: UO-31
SNB-75 = tested on: SNB-75
TK-10 = tested on: TK-10
SK-MEL-28 = tested on: SK-MEL-28
SF-268 = tested on: SF-268
HOP-18 = tested on: HOP-18
A498 = tested on: A498
COLO 205 = tested on: COLO 205
HCT-15 = tested on: HCT-15
HT-29 = tested on: HT-29
A549 = tested on: A549
NCI-H23 = tested on: NCI-H23
HOP-92 = tested on: HOP-92
M14 = tested on: M14
UACC-257 = tested on: UACC-257
K562 = tested on: K562
KM12 = tested on: KM12
EKVX = tested on: EKVX
SF-295 = tested on: SF-295
NCI-H226 = tested on: NCI-H226
HL-60 = tested on: HL-60
LOX IMVI = tested on: LOX IMVI
CAKI-1 = tested on: CAKI-1
RXF 631 = tested on: RXF 631
SF-539 = tested on: SF-539
Malme-3M = tested on: Malme-3M
OVCAR-8 = tested on: OVCAR-8
MOLT-4 = tested on: MOLT-4
KM-20L2 = tested on: KM-20L2
SK-MEL-5 = tested on: SK-MEL-5
786-0 = tested on: 786-0
SW-620 = tested on: SW-620
IGROV-1 = tested on: IGROV-1
HCT-116 = tested on: HCT-116
RXF 393 = tested on: RXF 393
OVCAR-5 = tested on: OVCAR-5
DMS-114 = tested on: DMS-114
HOP-62 = tested on: HOP-62
M19-MEL = tested on: M19-MEL
XF498 = tested on: XF498
ACHN = tested on: ACHN
SNB-78 = tested on: SNB-78
SK-MEL-2 = tested on: SK-MEL-2
NCI-H522 = tested on: NCI-H522
OVCAR-4 = tested on: OVCAR-4
BT-549 = tested on: BT-549
MDA-N = tested on: MDA-N
PC-3 = tested on: PC-3
SR = tested on: SR
T47D = tested on: T47D
MCF7 = tested on: MCF7
Hs-578T = tested on: Hs-578T
RPMI-8226 = tested on: RPMI-8226
DU-145 = tested on: DU-145
MDA-MB-231 = tested on: MDA-MB-231

Measured: GI50

O=c1/c(=C/c2ccc(Cl)cc2Cl)sc2nc3ccccc3n12
> 100 µM: HCT-15
inactive: SN12C > 100 µM | OVCAR-3 > 100 µM | NCI-H460 > 100 µM | DLD-1 > 100 µM | UACC-62 > 100 µM | SK-OV-3 > 100 µM | SNB-19 > 100 µM | U-251 > 100 µM | DMS-273 > 100 µM | CCRF-CEM > 100 µM | HCC 2998 > 100 µM | LXFL 529 > 100 µM | UO-31 > 100 µM | SNB-75 > 100 µM | TK-10 > 100 µM | SK-MEL-28 > 100 µM | SF-268 > 100 µM | HOP-18 > 100 µM | A498 > 100 µM | COLO 205 > 100 µM | HT-29 > 100 µM | A549 > 100 µM | NCI-H23 > 100 µM | HOP-92 > 100 µM | M14 > 100 µM | UACC-257 > 100 µM | K562 > 100 µM | KM12 > 100 µM | EKVX > 100 µM | SF-295 > 100 µM | NCI-H226 > 100 µM | HL-60 > 100 µM | LOX IMVI > 100 µM | CAKI-1 > 100 µM | RXF 631 > 100 µM | SF-539 > 100 µM | Malme-3M > 100 µM | OVCAR-8 > 100 µM | MOLT-4 > 100 µM | KM-20L2 > 100 µM | SK-MEL-5 > 100 µM | 786-0 > 100 µM | SW-620 > 100 µM | IGROV-1 > 100 µM | HCT-116 71.9 µM | RXF 393 > 100 µM | OVCAR-5 > 100 µM | DMS-114 > 100 µM | HOP-62 > 100 µM | M19-MEL > 100 µM | XF498 > 100 µM | ACHN > 100 µM | SNB-78 > 100 µM | SK-MEL-2 > 100 µM | NCI-H522 > 100 µM | OVCAR-4 > 100 µM

O=C1C=CC2(C=C1)C[C@H](NC(=O)OCc1ccccc1)C(=O)O2
inactive: SN12C 18.2 µM | OVCAR-3 15.5 µM | NCI-H460 24.3 µM | DLD-1 5.53 µM | UACC-62 17.3 µM | SK-OV-3 > 67.1 µM | SNB-19 99.5 µM | U-251 19.3 µM | DMS-273 18.3 µM | BT-549 18 µM | HCC 2998 19.7 µM | MDA-N 14.8 µM | LXFL 529 12.1 µM | UO-31 20.2 µM | PC-3 16.1 µM | SNB-75 25.1 µM | TK-10 15.2 µM | SK-MEL-28 13 µM | SF-268 17.2 µM | HOP-18 16.7 µM | A498 > 61.7 µM | COLO 205 5.93 µM | HT-29 13.8 µM | A549 38.1 µM | NCI-H23 16.1 µM | HOP-92 16.3 µM | M14 15.5 µM | UACC-257 16.9 µM | K562 3.08 µM | KM12 18.9 µM | EKVX 12.9 µM | SF-295 26.1 µM | NCI-H226 62.4 µM | HL-60 2.04 µM | LOX IMVI 9.93 µM | CAKI-1 18 µM | RXF 631 19.6 µM | SF-539 22.4 µM | Malme-3M 13 µM | OVCAR-8 16 µM | T47D 15.9 µM | MCF7 11.2 µM | Hs-578T 40.6 µM | MOLT-4 1.8 µM | KM-20L2 19 µM | SK-MEL-5 21.9 µM | 786-0 14.3 µM | SW-620 4.31 µM | RPMI-8226 3.6 µM | IGROV-1 19.8 µM | HCT-116 16 µM | RXF 393 10.2 µM | OVCAR-5 20.1 µM | DMS-114 20.3 µM | HOP-62 > 54.2 µM | M19-MEL 18.4 µM | XF498 17.8 µM | ACHN 15.8 µM | SNB-78 24.5 µM | SK-MEL-2 19.3 µM | NCI-H522 3.3 µM | DU-145 30.5 µM | MDA-MB-231 17.5 µM | OVCAR-4 18.2 µM
11 µM: HCT-15
active: CCRF-CEM 1.08 µM | SR 1.08 µM
